Starred links: 1 amine or outer side, 2 acyl side, 3 side chain; linkers in the order of their positions; H or OH if unused. Positions of bridges follow the written chain, without caps; N, C: chain ends. Non-standard residues stand in square brackets, D forms with d. Residues, ends and D or L forms follow the SMILES beside them. Triazole bridges read from a SMILES are 1,4-linked. dPhe(4-CF3) = N[C@H](Cc1ccc(C(F)(F)F)cc1)C(=O)O; NMeW = CN[C@@H](Cc1c[nH]c2ccccc12)C(=O)O; Lys(N3) = [N-]=[N+]=NCCCC[C@H](N)C(=O)O; Phe(4-NH2) = Nc1ccc(C[C@H](N)C(=O)O)cc1; Orn(N3) = [N-]=[N+]=NCCC[C@H](N)C(=O)O; NMeR = CN[C@@H](CCCNC(=N)N)C(=O)O; hArg = N=C(N)NCCCC[C@H](N)C(=O)O; R8 = C=CCCCCCC[C@@](C)(N)C(=O)O; Aad = N[C@@H](CCCC(=O)O)C(=O)O; Suc = O=C(CCC(=O)[*:2])[*:1]; S5 = C=CCCC[C@](C)(N)C(=O)O; Hpra = C#CCC[C@H](N)C(=O)O; dPra = C#CC[C@@H](N)C(=O)O; Nle = CCCC[C@H](N)C(=O)O; Pra = C#CC[C@H](N)C(=O)O; Dab = NCC[C@H](N)C(=O)O
Molecular target: T1, human recombinant MC3R (Homo sapiens, UniProt P41968)
T1 construct: host or cells: CHO-K1/Gα15
Assay: Ca2+ signalling functional assay, MC3R stable cell line (CHO-K1/Gα15)
Assay type: cell-based
Settings: calcium flux functional assay
Procedure: The Ca^2+ signalling functional assay was performed on a human recombinant MC3R stable cell line (CHO-K1/Gα15, GenScript). The cells were cultured at 37° C. and 5% CO2 with culture medium (90% Ham's F-12K (Kaighn's)+10% FBS+200 μg/mL Zeocin+100 μg/mL Hygromycin B). Cells were washed with PBS and then detached by incubation with 0.05% (w/v) Trypsin EDTA at 37° C. for 2-5 mins. Detached cells were suspended in Ham's F-12K (Kaighn's) (containing 10% FBS) and a 50 μL cell suspension was seeded into each well of a 384-well assay plate at a density of 10,000 cells/well. Cells were allowed to settle overnight at 37° C., 5% CO2. […] The compounds and reference compound ACTH were diluted in 4 folds starting from 50 uM. Then, 500 nL of compounds were transferred to the compound plate by the Echo machine. 30 uL assay buffer was added into the compounds plate and then shaken for 20-40 minutes. The plates were then placed on the FLIPR Tetra High-Throughput Cellular Screening System (FLIPR®, Molecular Devices) and 15 μL of the compound was added to each well, then calcium flux signal was measured.

T1 sequence (P41968 whole entry): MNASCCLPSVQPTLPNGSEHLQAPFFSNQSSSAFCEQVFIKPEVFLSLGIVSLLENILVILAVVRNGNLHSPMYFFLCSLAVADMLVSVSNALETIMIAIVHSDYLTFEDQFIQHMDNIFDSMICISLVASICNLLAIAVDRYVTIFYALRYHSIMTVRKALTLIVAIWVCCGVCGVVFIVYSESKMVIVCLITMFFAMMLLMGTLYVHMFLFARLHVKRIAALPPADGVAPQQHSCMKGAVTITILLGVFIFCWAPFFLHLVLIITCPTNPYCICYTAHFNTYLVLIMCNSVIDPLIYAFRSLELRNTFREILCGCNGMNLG

Compound	IC50
CCCC[C@H](NC(C)=O)C(=O)N[C@H]1CCCCn2cc(nn2)C[C@@H](C(N)=O)NC(=O)[C@H](Cc2c[nH]c3ccccc23)NC(=O)[C@H](CCCNC(=N)N)NC(=O)[C@@H](Cc2ccc(C(F)(F)F)cc2)NC(=O)[C@H](Cc2c[nH]cn2)NC1=O [KR-048, Ac-Nle-[Lys(N3)-His-Dphe(4-CF3)-Arg-Trp-Pra]-NH2] (Ac-[Nle][Lys(N3)]H[dPhe(4-CF3)]RW[Pra]-NH2; triazole 2-7)	> 50000 nM

Molecular target: T2, human recombinant MC4R (Homo sapiens, UniProt P32245)
T2 construct: host or cells: CHO-K1/Gα15
Assay: Ca2+ signalling functional assay, MC4R stable cell line (CHO-K1/Gα15)
Assay type: cell-based
Settings: calcium flux functional assay
Procedure: The Ca^2+ signalling functional assay was performed on a human recombinant MC4R stable cell line (CHO-K1/Gα15, GenScript). The cells were cultured at 37° C. and 5% CO2 with culture medium (90% Ham's F-12K (Kaighn's)+10% FBS+8 μg/mL Puromycin+100 μg/mL Hygromycin B). Cells were washed with PBS and then detached by incubation with 0.05% (w/v) Trypsin EDTA at 37° C. for 2-5 mins. Detached cells were suspended in Ham's F-12K (Kaighn's) (containing 10% FBS) and a 50 μL cell suspension was seeded into each well of a 384-well assay plate at a density of 15,000 cells/well. Cells were allowed to settle overnight at 37° C., 5% CO2. The next day, the assay plate was centrifuged and the media was replaced with dye (1×) in assay buffer (containing HBSS, HEPES 20 mM and probenecid 1 mM) and incubated for 1 h at 37° C. […] Then, 100 nL of compounds were transferred to the compound plate by the Echo machine. 30 μL assay buffer was added to the compounds plate and then shaken for 20 to 40 minutes. The plates were placed on the FLIPR and 15 μL of the compound was added to each well, then calcium flux signal was measured.

T2 sequence (P32245 whole entry): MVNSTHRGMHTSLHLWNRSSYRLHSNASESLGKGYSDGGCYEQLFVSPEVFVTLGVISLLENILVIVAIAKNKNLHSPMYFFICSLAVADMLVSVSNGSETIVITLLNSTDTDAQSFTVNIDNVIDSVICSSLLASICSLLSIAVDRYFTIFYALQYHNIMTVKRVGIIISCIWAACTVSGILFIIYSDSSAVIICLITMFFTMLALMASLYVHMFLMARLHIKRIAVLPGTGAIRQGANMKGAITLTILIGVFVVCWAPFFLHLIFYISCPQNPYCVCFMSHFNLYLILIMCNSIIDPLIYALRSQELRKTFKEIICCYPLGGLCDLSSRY

Compound	IC50
CCCC[C@H](NC(C)=O)C(=O)N1CCC(=O)NCC[C@@H](C(=O)N[C@@H](Cc2c[nH]c3ccccc23)C(N)=O)NC(=O)[C@H](CCCNC(=N)N)NC(=O)[C@@H](Cc2ccccc2)NC(=O)[C@H](Cc2c[nH]cn2)NC(=O)C1 [KR-027, Ac-Nle-cyc(NGlu-His-DPhe-Arg-Dab)-Trp-NH2]	84.1 nM
CCCC[C@H](NC(C)=O)C(=O)N[C@H]1CCCCn2cc(nn2)C[C@H](C(=O)N[C@@H](CCCCN)C(N)=O)NC(=O)[C@H](Cc2c[nH]c3ccccc23)NC(=O)[C@H](CCCNC(=N)N)NC(=O)[C@@H](Cc2ccccc2)NC(=O)[C@H](Cc2c[nH]cn2)NC1=O [KR-070, Ac-Nle-[Lys(N3)-His-DPhe-Arg-Trp-DPra]-Lys-NH2] (Ac-[Nle][Lys(N3)]H[dF]RW[dPra]K-NH2; triazole 2-7)	84.1 nM
CSCC[C@H](NC(=O)[C@H](CO)NC(=O)[C@H](Cc1ccc(O)cc1)NC(=O)[C@H](CO)NC(C)=O)C(=O)N[C@@H](CCC(=O)O)C(=O)N[C@@H](Cc1c[nH]cn1)C(=O)N[C@@H](Cc1ccccc1)C(=O)N[C@@H](CCCNC(=N)N)C(=O)N[C@@H](Cc1c[nH]c2ccccc12)C(=O)NCC(=O)N[C@@H](CCCCN)C(=O)N1CCC[C@H]1C(N)=O [KR-005]	67.1 nM

Molecular target: T3, human recombinant MC5R (Homo sapiens, UniProt P33032)
T3 construct: host or cells: CHO-K1/Ga15
Assay: Ca2+ signalling functional assay, MC5R stable cell line (CHO-K1/Ga15)
Assay type: cell-based
Settings: calcium flux functional assay
Procedure: The Ca^2+ signalling functional assay was performed on a human recombinant MC5R stable cell line (CHO-K1/Ga15, GenScript). The cells were cultured at 37° C. and 5% C02 with culture medium (90% Ham's F-12K (Kaighn's)+10% FBS+400 μg/mL G418+100 μg/mL Hygromycin B). Cells were washed with PBS and then detached by incubation with 0.05% (w/v) Trypsin EDTA at 37° C. for 2 to 5 mins. Detached cells were suspended in Ham's F-12K (Kaighn's) (containing 10% FBS) and a 50 μL cell suspension is seeded into each well of a 384-well assay plate at a density of 15,000 cells/well. Cells were allowed to settle overnight at 37° C., 5% CO2. […] Then, 100 nL of compounds were transferred to the compound plate by the Echo machine. Thirty microliter assay buffer was added to the compounds plate and then shaken for 20-40 minutes. The plates were placed on the FLIPR and 15 μL of the compound was added to each well, then calcium flux signal was measured.

T3 sequence (P33032 whole entry): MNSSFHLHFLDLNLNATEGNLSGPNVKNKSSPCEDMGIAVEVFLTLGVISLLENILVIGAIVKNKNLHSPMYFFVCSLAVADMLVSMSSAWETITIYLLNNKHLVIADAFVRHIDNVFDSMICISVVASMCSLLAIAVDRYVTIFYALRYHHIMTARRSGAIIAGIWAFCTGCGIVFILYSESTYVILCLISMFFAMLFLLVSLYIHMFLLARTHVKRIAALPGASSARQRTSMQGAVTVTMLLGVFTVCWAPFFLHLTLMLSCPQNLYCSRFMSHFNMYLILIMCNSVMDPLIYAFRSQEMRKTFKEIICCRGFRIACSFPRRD

Compound	IC50	MC5R IC50
CC(=O)N[C@H]1CCCCn2cc(nn2)C[C@@H](C(N)=O)NC(=O)CNC(=O)[C@H](Cc2c[nH]c3ccccc23)NC(=O)[C@H](CCCNC(=N)N)NC(=O)[C@H](Cc2ccccc2)NC(=O)[C@H](Cc2c[nH]cn2)NC(=O)[C@H](CCC(=O)O)NC1=O [KR-010, Ac-[Lys(N3)-Glu-His-Phe-Arg-Trp-Gly-Pra]-NH2] (Ac-[Lys(N3)]EHFRWG[Pra]-NH2; triazole 1-8)	> 10000 nM	
N=C(N)NCCC[C@@H]1NC(=O)[C@H](Cc2ccccc2)NC(=O)[C@H](Cc2c[nH]cn2)NC(=O)[C@H](CCC(=O)O)NC(=O)CSC[C@@H](C(N)=O)NC(=O)CNC(=O)[C@H](Cc2c[nH]c3ccccc23)NC1=O [KR-012, Cyclo(-Ac-Glu-His-Phe-Arg-Trp-Gly-Cys)-NH2] ({CH2CO}-EHFRWGC-NH2; thioether N-7)		Not fit
CCCC[C@H](NC(C)=O)C(=O)N[C@H]1CCCn2cc(nn2)CC[C@@H](C(=O)N[C@@H](CCCCN)C(N)=O)NC(=O)[C@H](Cc2c[nH]c3ccccc23)NC(=O)[C@H](CCCNC(=N)N)NC(=O)[C@@H](Cc2ccccc2)NC(=O)[C@H](Cc2c[nH]cn2)NC1=O [KR-068, Ac-Nle-[Orn(N3)-His-DPhe-Arg-Trp-Hpra]-Lys-NH2] (Ac-[Nle][Orn(N3)]H[dF]RW[Hpra]K-NH2; triazole 2-7)	40.3 nM	
CCCC[C@H](NC(C)=O)C(=O)N[C@H]1CCCCn2cc(nn2)C[C@@H](C(N)=O)NC(=O)[C@H](Cc2c[nH]c3ccccc23)NC(=O)[C@H](CCCNC(=N)N)NC(=O)[C@H](Cc2ccccc2)NC(=O)[C@H](Cc2c[nH]cn2)NC1=O [KR-008, Ac-Nle-[Lys(N3)-His-Phe-Arg-Trp-Pra]-NH2] (Ac-[Nle][Lys(N3)]HFRW[Pra]-NH2; triazole 2-7)	> 10000 nM	
Ac-EHFRWGKP-NH2 [KR-007]	> 10000 nM	
CC(=O)N[C@]1(C)CCCCCCC=CCCC[C@@](C)(C(N)=O)NC(=O)CNC(=O)[C@H](Cc2c[nH]c3ccccc23)NC(=O)[C@H](CCCNC(=N)N)NC(=O)[C@H](Cc2ccccc2)NC(=O)[C@H](Cc2c[nH]cn2)NC(=O)[C@H](CCC(=O)O)NC1=O [KR-015, Ac-R8-Glu-His-Phe-Arg-Trp-Gly-S5-NH2] (Ac-[R8]EHFRWG[S5]-NH2; staple 1-8)	> 10000 nM	
CC(=O)N[C@@H](CCC(=O)O)C(=O)N[C@@H](Cc1c[nH]cn1)C(=O)N[C@@H](Cc1ccccc1)C(=O)N[C@@H](CCCNC(=N)N)C(=O)N[C@@H](Cc1c[nH]c2ccccc12)C(=O)NCC(=O)N[C@@H](CCCCN)C(=O)N1CCC[C@H]1C(=O)N[C@H](C(N)=O)C(C)C [KR-004]	> 10000 nM	

Molecular target: T4, human recombinant MC1R (Homo sapiens, UniProt Q01726)
T4 construct: host or cells: CHO-K1
Assay: cyclic AMP (cAMP) functional assay, MC1R stable cell line (CHO-K1);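 also: cells with test compound for 60 min at room temperature in buffer containing IBMX, then cAMP quantified by Eu-cAMP tracer and ULight anti-cAMP detection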
Assay type: cell-based
Settings: cAMP functional assay
Procedure: The cyclic AMP (cAMP) functional assay was performed on a human recombinant MC1R stable cell line (CHO-K1, GenScript). The cells were cultured at 37° C. and 5% CO2 with culture medium (90% Ham's F-12K (Kaighn's)+10% FBS+400 μg/mL G418). […] Then, 100 nL of compounds were transferred to the assay plate by the Echo machine. Cells were washed with PBS and then detached by incubation with 0.05% (w/v) Trypsin EDTA at 37° C. for 2 to 5 mins. Cells were collected with stimulation buffer (1×HBSS with 5 mM HEPES+0.2 mM IBMX+0.1% BSA) and 10 ul of cells (the density of 2,500 cells/well) solution was transferred to assay plate, centrifuged at 600 rpm for 3 min and then incubated with compounds at room temperature for 60 min. After that, 5 μL 4×Eu-cAMP tracer solution and 5 μL 4×ULight™-anti-cAMP solution was added into the cells, centrifuged at 600 rpm for 3 min and incubated for 60 min. The cAMP signal was detected with Envision® Multimode Plate Reader (PerkinElmer).

T4 sequence (Q01726 whole entry): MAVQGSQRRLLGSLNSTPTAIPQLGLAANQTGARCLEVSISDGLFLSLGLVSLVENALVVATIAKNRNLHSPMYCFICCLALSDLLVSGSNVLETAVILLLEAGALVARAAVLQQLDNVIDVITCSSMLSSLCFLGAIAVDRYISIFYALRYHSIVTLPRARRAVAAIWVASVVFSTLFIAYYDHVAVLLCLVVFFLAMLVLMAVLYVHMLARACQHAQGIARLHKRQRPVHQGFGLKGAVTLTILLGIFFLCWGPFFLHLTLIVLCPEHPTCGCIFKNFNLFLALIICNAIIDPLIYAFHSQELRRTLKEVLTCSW

Compound	IC50
CCCC[C@H](NC(C)=O)C(=O)N[C@H]1CSCc2cccc(c2)CSC[C@@H](C(=O)N[C@@H](Cc2c[nH]c3ccccc23)C(N)=O)NC(=O)[C@H](CCCNC(=N)N)NC(=O)[C@@H](Cc2ccccc2)NC(=O)[C@H](Cc2c[nH]cn2)NC1=O [KR-032, Ac-Nle-cyc(Cys-His-DPhe-Arg-Cys)-Trp, L: m-xylene-NH2]	0.081 nM
CSCC[C@H](NC(=O)[C@H](CO)NC(=O)[C@H](Cc1ccc(O)cc1)NC(=O)[C@H](CO)NC(C)=O)C(=O)N[C@@H](CCC(=O)O)C(=O)N[C@@H](Cc1c[nH]cn1)C(=O)N[C@@H](Cc1ccccc1)C(=O)N[C@@H](CCCNC(=N)N)C(=O)N[C@@H](Cc1c[nH]c2ccccc12)C(=O)NCC(=O)N[C@@H](CCCCN)C(N)=O [KR-006]	0.11 nM
CCCC[C@@H]1NC(=O)CSC[C@@H](C(N)=O)NC(=O)[C@H](CCCCN)NC(=O)CNC(=O)[C@H](Cc2c[nH]c3ccccc23)NC(=O)[C@H](CCCNC(=N)N)NC(=O)[C@H](Cc2ccccc2)NC(=O)[C@H](Cc2c[nH]cn2)NC(=O)[C@H](CCC(=O)O)NC1=O [KR-036] ({CH2CO}-[Nle]EHFRWGKC-NH2; thioether N-9)	0.88 nM
CCCC[C@H](NC(C)=O)C(=O)N[C@H]1CCCCn2cc(nn2)C[C@@H](C(N)=O)NC(=O)[C@H](Cc2c[nH]c3ccccc23)N(C)C(=O)[C@H](CCCNC(=N)N)N(C)C(=O)[C@@H](Cc2ccccc2)NC(=O)[C@H](Cc2c[nH]cn2)NC1=O [KR-050, Ac-Nle-[Lys(N3)-His-DPhe-NMeArg-NMeTrp-Pra]-NH2] (Ac-[Nle][Lys(N3)]H[dF][NMeR][NMeW][Pra]-NH2; triazole 2-7)	0.081 nM
CCCC[C@H](NC(C)=O)C(=O)N[C@H]1CCNC(=O)CCC(=O)NCC[C@@H](C(N)=O)NC(=O)[C@H](Cc2c[nH]c3ccccc23)NC(=O)[C@H](CCCNC(=N)N)NC(=O)[C@@H](Cc2ccccc2)NC(=O)[C@H](Cc2c[nH]cn2)NC1=O [KR-041, Ac-Nle-[Dab-His-DPhe-Arg-Trp-Dab] Linker: succinic acid-NH2] (Ac-[Nle][Dab]H[dF]RW[Dab]-NH2; linker 2-7 via Suc (inferred))	0.04 nM
CCCC[C@H](NC(C)=O)C(=O)N[C@H]1CCCn2cc(nn2)CC[C@@H](C(=O)N[C@@H](CCCCN)C(N)=O)NC(=O)[C@H](Cc2c[nH]c3ccccc23)NC(=O)[C@H](CCCNC(=N)N)NC(=O)[C@@H](Cc2ccccc2)NC(=O)[C@H](Cc2c[nH]cn2)NC1=O [KR-068, Ac-Nle-[Orn(N3)-His-DPhe-Arg-Trp-Hpra]-Lys-NH2] (Ac-[Nle][Orn(N3)]H[dF]RW[Hpra]K-NH2; triazole 2-7)	0.04 nM
CSCC[C@H](NC(=O)[C@H](CO)NC(=O)[C@H](Cc1ccc(O)cc1)NC(=O)[C@H](CO)NC(C)=O)C(=O)N[C@@H](CCC(=O)O)C(=O)N[C@@H](Cc1c[nH]cn1)C(=O)N[C@@H](Cc1ccccc1)C(=O)N[C@@H](CCCNC(=N)N)C(=O)N(C)[C@@H](Cc1c[nH]c2ccccc12)C(=O)NCC(=O)N[C@@H](CCCCN)C(=O)N1CCC[C@H]1C(=O)N[C@H](C(N)=O)C(C)C [KR-024]	0.88 nM
CCCC[C@H](NC(C)=O)C(=O)N[C@H]1CCCCn2cc(nn2)C[C@@H](C(=O)N[C@@H](CCCC(N)=O)C(N)=O)NC(=O)[C@H](Cc2c[nH]c3ccccc23)NC(=O)[C@H](CCCNC(=N)N)NC(=O)[C@@H](Cc2ccccc2)NC(=O)[C@H](Cc2c[nH]cn2)NC1=O [KR-057, Ac-Nle-[Lys(N3)-His-DPhe-Arg-Trp-Pra]-Hgln-NH2] (Ac-[Nle][Lys(N3)]H[dF]RW[Pra][Aad](NH2)-NH2; triazole 2-7)	0.024 nM
CCCC[C@H](NC(C)=O)C(=O)N[C@H]1CCn2cc(nn2)COCc2cn(nn2)CC[C@@H](C(N)=O)NC(=O)[C@H](Cc2c[nH]c3ccccc23)NC(=O)[C@H](CCCNC(=N)N)NC(=O)[C@@H](Cc2ccccc2)NC(=O)[C@H](Cc2c[nH]cn2)NC1=O [KR-042, Ac-Nle-[Dab(N3)-His-DPhe-Arg-Trp-Dab(N3)] linkr: 3,3′-Oxybis[1-propyne]-NH2]	0.16 nM
CCCC[C@H](NC(C)=O)C(=O)N[C@H]1Cc2cn(nn2)CCCC[C@@H](C(=O)N[C@@H](CCCCN)C(N)=O)NC(=O)[C@H](Cc2c[nH]c3ccccc23)NC(=O)[C@H](CCCNC(=N)N)NC(=O)[C@@H](Cc2ccccc2)NC(=O)[C@H](Cc2c[nH]cn2)NC1=O [KR-067, Ac-Nle-[Pra-His-DPhe-Arg-Trp-Lys(N3)]-Lys-NH2] (Ac-[Nle][Pra]H[dF]RW[Lys(N3)]K-NH2; triazole 2-7)	0.11 nM
CCCC[C@H](NC(C)=O)C(=O)N[C@H]1CCCCn2cc(nn2)C[C@@H](C(N)=O)NC(=O)[C@H](Cc2c[nH]c3ccccc23)NC(=O)[C@H](CCCNC(=N)N)NC(=O)[C@@H](Cc2ccccc2)NC(=O)[C@H](Cc2ccc(N)cc2)NC1=O [KR-047, Ac-Nle-[Lys(N3)-Phe(4-NH2)-DPhe-Arg-Trp-Pra]-NH2] (Ac-[Nle][Lys(N3)][Phe(4-NH2)][dF]RW[Pra]-NH2; triazole 2-7)	> 50 nM
CCCC[C@H](NC(C)=O)C(=O)N[C@H]1CCCCn2cc(nn2)C[C@@H](C(=O)N[C@@H](CCCCN)C(N)=O)NC(=O)[C@H](Cc2c[nH]c3ccccc23)NC(=O)[C@H](CCCNC(=N)N)NC(=O)[C@@H](Cc2ccccc2)NC(=O)[C@H](Cc2c[nH]cn2)NC1=O [KR-037, Ac-Nle-[Lys(N3)-His-DPhe-Arg-Trp-Pra]-Lys-NH2] (Ac-[Nle][Lys(N3)]H[dF]RW[Pra]K-NH2; triazole 2-7)	0.024 nM
CSCC[C@H](NC(=O)[C@H](CO)NC(=O)[C@H](Cc1ccc(O)cc1)NC(=O)[C@H](CO)NC(C)=O)C(=O)N[C@@H](CCC(=O)O)C(=O)N[C@@H](Cc1c[nH]cn1)C(=O)N[C@@H](Cc1ccccc1)C(=O)N[C@@H](CCCNC(=N)N)C(=O)N[C@@H](Cc1c[nH]c2ccccc12)C(=O)NCC(=O)N[C@@H](CCCCN)C(=O)N1CCC[C@H]1C(N)=O [KR-005]	0.093 nM
CCCC[C@H](NC(C)=O)C(=O)N[C@H]1CCCCn2cc(nn2)C[C@@H](C(=O)N[C@@H](CCCCN)C(N)=O)NC(=O)[C@H](Cc2c[nH]c3ccccc23)NC(=O)[C@H](CCCCNC(=N)N)NC(=O)[C@@H](Cc2ccccc2)NC(=O)[C@H](Cc2c[nH]cn2)NC1=O [KR-054, Ac-Nle-[Lys(N3)-His-DPhe-HArg-Trp-Pra]-Lys-NH2] (Ac-[Nle][Lys(N3)]H[dF][hArg]W[Pra]K-NH2; triazole 2-7)	0.093 nM

From patent US20260152527A1, “NOVEL MELANOCORTIN ANALOGS” (priority 2022, published 2026)
